Source: patent US6833372B2, “Non-peptide GnRH agents, Pharmaceutical compositions, and methods for their use” (Pfizer, Inc., priority 2002, dated 2004)
Values after ≈ are worked out from the molar mass of the structure shown. Where two headings read alike, the source gives them in different places.

Legend:
human GnRH receptors = target: T1, human GnRH receptors (Homo sapiens, UniProt P30968); assay: Radioligand binding: inhibition of 125I-GnRH-A binding to human GnRH receptor membranes; settings: HEK 293 cell membranes
T1 construct: expressed in transfected cells; host or cells: HEK 293 cells, stably transfected; membranes
T1 sequence (P30968 1-328): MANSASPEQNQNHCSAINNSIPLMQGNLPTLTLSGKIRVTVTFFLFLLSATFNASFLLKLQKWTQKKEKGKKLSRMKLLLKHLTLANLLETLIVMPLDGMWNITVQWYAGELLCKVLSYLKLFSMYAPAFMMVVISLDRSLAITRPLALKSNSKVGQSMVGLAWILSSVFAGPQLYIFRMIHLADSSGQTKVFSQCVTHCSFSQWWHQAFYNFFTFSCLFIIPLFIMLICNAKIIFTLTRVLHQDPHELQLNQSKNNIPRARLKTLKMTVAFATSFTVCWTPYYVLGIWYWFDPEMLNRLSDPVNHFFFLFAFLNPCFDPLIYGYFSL
Procedure, shortened: (§1)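 Membranes from rat pituitaries, or HEK 293 cells stably expressing mouse or human receptor, incubated 1 hour at room temperature with ~0.04-0.06 nM radioligand (HEPES pH 7.4, EDTA, MgCl2, BSA) and competitor at 0.1-10,000 nM. Bound ligand collected by GF/C filtration and counted; Ki derived from IC50 by Cheng-Prusoff.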

rat GnRH receptor = target: T2, rat GnRH receptor (Rattus norvegicus, UniProt P30969); assay: Radioligand binding: inhibition of 125I-GnRH-A binding to rat GnRH receptor (rat pituitary membranes); settings: read-out: Ki (nM), Inhibition Binding of 125I-GnRH-A to GnRH Receptors
T2 construct: or rat pituitaries (Pel Freez Biologicals, Rogers, Ark.) were homogenized; tissue Pel Freez Biologicals; host or cells: rat pituitaries (membrane preparation)
T2 sequence (P30969 1-327): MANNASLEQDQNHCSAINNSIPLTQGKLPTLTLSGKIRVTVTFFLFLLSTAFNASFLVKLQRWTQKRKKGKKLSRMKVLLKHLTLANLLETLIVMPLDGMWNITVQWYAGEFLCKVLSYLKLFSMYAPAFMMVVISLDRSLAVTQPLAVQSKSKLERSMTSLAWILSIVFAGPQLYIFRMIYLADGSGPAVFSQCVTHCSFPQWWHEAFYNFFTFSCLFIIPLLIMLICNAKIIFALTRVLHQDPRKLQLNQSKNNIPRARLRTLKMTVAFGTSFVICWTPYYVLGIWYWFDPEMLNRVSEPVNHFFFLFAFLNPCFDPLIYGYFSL
Procedure, shortened: as §1

[1] = In vitro metabolism: disappearance of parent compound in rat liver microsomes (male, female); format: in vitro ADME; settings: 5 uM compound, 30 minutes 37° C.; for Male Rat (MR) % rem. 30′: male rat liver microsomes; for Fem. Rat (FR) % rem. 30′: female rat liver microsomes
Description: (§2) Human, rat, dog, and monkey liver microsomes were isolated by differential centrifugation. Specimens of human liver were obtained from the International Institute for the Advancement of Medicine (Scranton, Pa.). The disappearance of the parent compound was studied in a mixture containing 5 uM compound, 0.5 mg/ml microsomal protein, and 2 mM NADPH in 50 mM K phosphate buffer, pH 7.4. Samples were incubated for 30 minutes at 37° C. The reaction was terminated by the addition of acetonitrile and compounds analyzed by LC-MS as described above.

[2] = Pharmacokinetics in rats (jugular vein cannula, plasma LC-MS); format: in vivo, Rat
Description: Rats (male or female, 200-225 g) were prepared with indwelling jugular vein cannula as described by Harms et al., Applied Physiol. 36:391-398 (1974), and allowed to recover overnight with free access to the standard vivarium chow and water. […] […] The blood samples were withdrawn at specific times, plasma was immediately separated and compound extracted with ethyl acetate. The samples were analyzed by LC-MS using 30-90% gradient of ACN in 50 mM ammonium acetate.
The pharmacokinetic parameters were calculated using WinNonlin software (Scientific Consulting Inc.). The bioavailability was calculated as AUCp.o./AUCi.v., where AUCp.o. and AUC i.v. are areas under the plasma concentration-time curve after oral and i.v. administration, respectively.

Rat plasma % remain = format: in vitro ADME
[3] = In vitro metabolism: disappearance of parent compound in human liver microsomes; format: in vitro ADME; settings: 5 uM compound, 0.5 mg/ml protein, 2 mM NADPH, 30 minutes 37° C.
Description: as §2

[4] = In vitro metabolism: disappearance of parent compound in dog liver microsomes; format: in vitro ADME; settings: 5 uM compound, 30 minutes 37° C.
Description: as §2

[5] = In vitro metabolism: disappearance of parent compound in monkey liver microsomes; format: in vitro ADME; settings: 5 uM compound, 30 minutes 37° C.
Description: as §2

H S A = H S A (Homo sapiens, UniProt P02768); assay: H S A column α; format: in vitro ADME
Chain of H S A (P02768 25-609): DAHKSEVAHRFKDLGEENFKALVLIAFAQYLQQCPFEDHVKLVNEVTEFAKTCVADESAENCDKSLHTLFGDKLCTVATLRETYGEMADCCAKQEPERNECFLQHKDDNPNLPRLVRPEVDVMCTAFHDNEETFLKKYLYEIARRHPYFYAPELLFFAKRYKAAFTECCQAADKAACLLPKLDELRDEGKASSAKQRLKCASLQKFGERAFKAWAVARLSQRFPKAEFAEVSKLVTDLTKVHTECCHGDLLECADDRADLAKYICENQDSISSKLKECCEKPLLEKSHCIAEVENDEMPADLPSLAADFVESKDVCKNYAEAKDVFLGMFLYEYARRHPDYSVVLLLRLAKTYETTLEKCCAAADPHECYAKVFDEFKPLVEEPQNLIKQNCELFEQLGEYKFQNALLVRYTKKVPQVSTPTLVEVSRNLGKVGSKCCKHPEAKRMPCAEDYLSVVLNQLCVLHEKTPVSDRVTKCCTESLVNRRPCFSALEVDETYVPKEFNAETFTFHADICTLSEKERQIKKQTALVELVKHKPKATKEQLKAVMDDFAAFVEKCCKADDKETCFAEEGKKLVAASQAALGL

[6] = Solubility at pH2 and pH6; format: physicochemical
[7] = female, rat, plasma, po, 10 mg/kg, female rat, 10 mg/kg as 5 mg/ml solution in 10% DMSO, 10% cremophor, 80% saline (footnote 5), read-out: FR Cmax
[8] = female, rat, plasma, po, 10 mg/kg, female rat, 10 mg/kg as 5 mg/ml solution in 10% DMSO, 10% cremophor, 80% saline (footnote 5), read-out: FR T1/2 hr (converted)
[9] = pH 6, aqueous buffer, pH6, read-out: Solubility μg/ml pH6
[10] = female rat, 10 mg/kg as 5 mg/ml solution in 10% DMSO, 10% cremophor, 80% saline (footnote 5)
[11] = female, rat, plasma, po, 10 mg/kg, female rat, 10 mg/kg as 5 mg/ml solution in 10% DMSO, 10% cremophor, 80% saline (footnote 5), read-out: FR Tmax hr

| Compound | Ki (human GnRH receptors) [nM] | Ki (rat GnRH receptor) [nM] | Male Rat (MR) % rem. 30′ [1] [%] | Cmax [2, 7] [nM] | half-life [2, 8] [h] | Rat plasma % remain (Rat plasma % remain) [%] | Human % rem. 30′ [3] [%] | Fem. Rat (FR) % rem. 30′ [1] [%] | Dog % rem. 30′ [4] [%] | Monkey % rem. [5] [%] | H S A column α (H S A) | also measured |
| --- | --- | --- | --- | --- | --- | --- | --- | --- | --- | --- | --- | --- |
| COc1nc(NCCCN2CCOCC2)nc(OC)c1NC(=O)c1ccc(Cc2cc3c(cc2C)C(C)(C)OC3(C)C)o1 [Example D3, 5-(1,1,3,3,6-Pentamethyl-1,3-dihydro-isobenzofuran-5-ylmethyl)-furan-2-carboxylic Acid [4,6-dimethoxy-2-(3-morpholin-4-yl-propylamino)-pyrimidin-5-yl]-amide] | 24.5 | 0.4 | 22 | 400 | 1.6 | 100 | – | – | – | – | – | FR T1/2 hr ([2]; female rat, 10 mg/kg as 5 mg/ml solution in 10% DMSO, 10% cremophor, 80% saline (footnote 5), 10 mg/kg): 2.3 h; Cmax ([2]; female rat, 10 mg/kg as 5 mg/ml solution in 10% DMSO, 10% cremophor, 80% saline (footnote 5), 10 mg/kg, read-out: FR Cmax): 200 nM |
| COc1nc(NCCN2CCCC2)nc(OC)c1NC(=O)c1ccc(Cc2cc3c(cc2C)C(C)(C)OC3(C)C)o1 [Example D5] | 1.5 | 0.84 | 79 | – | – | – | 80 | 95 | 98 | 30 | 2 | MR Fp.o. ([2]; male rat, male rats dosed orally at 50 mg/kg): 34%; Cmax ([2]; male, rat, plasma, oral, 50 mg/kg, male rat, male rats dosed orally at 50 mg/kg, read-out: MR Cmax): 700 nM; half-life ([2]; male, rat, plasma, oral, 50 mg/kg, male rat, male rats dosed orally at 50 mg/kg, read-out: MR T1/2 hr (converted)): 7 h; Tmax ([2]; male, rat, plasma, oral, 50 mg/kg, male rat, male rats dosed orally at 50 mg/kg, read-out: MR Tmax hr): 4 h; solubility ([6]; pH 2, simulated gastric fluid, pH2, read-out: Solubility μg/ml pH2): > 30 µg/mL; solubility [6, 9]: > 30 µg/mL |
| CCN(CC)CCNc1nc(OC)c(NC(=O)c2ccc(Cc3cc4c(cc3C)C(C)(C)OC4(C)C)o2)c(OC)n1 [Example D7, N-(2-{[2-(Diethylamino)ethyl]amino}-4,6-dimethoxypyrimidin-5-yl)-5-[(1,1,3,3,6-pentamethyl-1,3-dihydro-2-benzofuran-5-yl)methyl]-2-furamide] | 6 | 2.2 | 91 | 500 | 4.1 | 100 | 91 | 95 | 91 | 16 | 2 | FR Fp.o. [2, 10]: 30%^5; Tmax [2, 11]: 2 h |
| COc1nc(N(C)C)nc(OC)c1NC(=O)c1ccc(Cc2cc3c(cc2C)C(C)(C)OC3(C)C)o1 [Example D8, N-[2-(Dimethylamino)-4,6-dimethoxypyrimidin-5-yl]-5-[(1,1,3,3,6-pentamethyl-1,3-dihydro-2-benzofuran-5-yl)methyl]-2-furamide] | 6 | 31 | 58 | – | – | 100 | 73 | 84 | 49 | 4 | 3 | – |
| COc1nc(NCCCN(C)C)nc(OC)c1NC(=O)c1ccc(Cc2cc3c(cc2C)C(C)(C)OC3(C)C)o1 [Example D9, N-(2-{[3-(Dimethylamino)propyl]amino}-4,6-dimethoxypyrimidin-5-yl)-5-[(1,1,3,3,6-pentamethyl-1,3-dihydro-2-benzofuran-5-yl)methyl]-2-furamide] | 3 | 0.54 | 80 | 800 | 4.3 | 100 | 89 | 100 | 100 | 44 | 2 | FR Fp.o. [2, 10]: 57%^5; Tmax [2, 11]: 2 h |
| COc1nc(NCCCNCCCN)nc(OC)c1NC(=O)c1ccc(Cc2cc3c(cc2C)C(C)(C)OC3(C)C)o1 [Example D17, N-[2-({3-[(3-Aminopropyl)amino]propyl}amino)-4,6-dimethoxypyrimidin-5-yl}-5-[(1,1,3,3,6-pentamethyl-1,3-dihydro-2-benzofuran-5-yl)methyl]-2-furamide] | 0.65 | 0.2 | 23 | – | – | – | 45 | 24 | 29 | 42 | 10 | – |
| COc1nc(NCCCN2CCOCC2)nc(OC)c1NC(=O)c1ccc(Cc2cc3c(cc2C)CCCC3(C)C)o1 [Example F1, 5-(3,8,8-Trimethyl-5,6,7,8-tetrahydro-naphthalen-2-ylmethyl)-furan-2-carboxylic acid [4,6-dimethoxy-2-(3-morpholin-4-yl-propylamino)-pyrimidin-5-yl]-amide] | 0.91 | 0.35 | 36 | – | – | – | 39 | 81 | 31 | 0 | – | solubility [6, 9]: 12 µg/mL (≈ 20.8 µM) |
| COc1nc(NCCC#N)nc(OC)c1NC(=O)c1ccc(Cc2cc3c(cc2C)CCCC3(C)C)o1 [Example F2, 5-(3,8,8-Trimethyl-5,6,7,8-tetrahydro-naphthalen-2-ylmethyl)-furan-2-carboxylic acid [2-(2-cyano-ethylamino)-4,6-dimethoxy-pyrimidin-5-yl]-amide] | 1.3 | 1.7 | 74 | – | – | 100 | 70 | 100 | 85 | 2 | – | – |
